The values that follow are results of earlier work, collected in US6767507B1, “Uncomplexed cyclodextrin compositions for odor control” (The Procter & Gamble Company, priority 1998, dated 2004).

For the series the following is noted: for water solubility: in water.

With `OCCOc1ccccc1` [2-phenoxyethanol], the water solubility result is on record as “about 2.67%”. For the molecule `OCCc1ccccc1` [2-phenylethanol], the water solubility entry is listed as “about 2%”.

`O=[N+]([O-])C1(Br)COCOC1` [Bronidox L, 5-bromo-5-nitro-1,3-dioxane]: the water solubility result is “about 0.46%”. For `CC1(C)C(=O)N(CO)C(=O)N1CO` [DMDM hydantoin, 1,3-bis(hydroxymethyl)-5,5-dimethyl-2,4-imidazolidinedione], the water solubility result was “more than 50%”.

As for `ClC=CC[N+]12CN3CN(CN(C3)C1)C2.[Cl-]` [Dowicil 200, 1-(3-Chlorallyl)-3,5,7-triaza-1-azoniaadamantane chloride], the “solubility in water” value is recorded as “freely soluble in water”.

With `OCc1ccccc1` [benzyl alcohol], the water solubility result is reported as “about 4%”.

As to `[H]/N=C(\N/C(=N/[H])NCCCCCCNC(=N)NC(=N)Nc1ccc(Cl)cc1)Nc1ccc(Cl)cc1` [chlorhexidine diacetate, 1,1′-hexamethylene bis(5-(p-chlorophenyl)biguanide), reference compound], the water solubility result was “about 1.8%”. Turning to `[H]/N=C(\N/C(=N/[H])NCCCCCCNC(=N)NC(=N)Nc1ccc(Cl)cc1)Nc1ccc(Cl)cc1` [chlorhexidine digluconate, 1,1′-hexamethylene bis(5-(p-chlorophenyl)biguanide), reference compound], the water solubility entry is reported as “about 70%”.

Regarding `CC(C)(O)C(Cl)(Cl)Cl` [chlorobutanol, 1,1,1-Trichloro-2-methylpropan-2-ol], the water solubility entry is on record as “about 0.8%”. Consider `[Na+].[O-][n+]1ccccc1[S-]` [sodium pyrithione], for which the water solubility result is “about 50%”.
